Values of other authors in patent US20060235005A1, “Use of phosphodiesterase 5 (PDE5) inhibitors in the treatment of schizophrenia” (Oak Labs, Corp., priority 2005, published 2006).
Where two headings read alike, the source gives them in different places. Blank lines part the entries; values can stand above or below the compound they belong to.

How the values were obtained:
schizophrenia patients = conditions: 8-week trial
rats [1] = conditions: oral 0.3-1.0 mg kg-1, rats
anesthetized dogs = conditions: intravenous 1-300 μg kg-1, anesthetized dogs
[2] = test system: patients with schizophrenia; conditions: compared with haloperidol
mice [3] = conditions: 2, 4, & 8 mg/kg
[4] = test system: women affected by arousal disorders
rats [5] = conditions: 3 mg/kg and 10 mg/kg p.o., at 24 hours
[6] = test system: middle cerebral artery occlusion; conditions: 2-5 mg/kg daily for seven days, vs vehicle
rats [7] = test system: rats
[8] = test system: men with cardiovascular disease
hyperammonemic rats = conditions: chronic oral treatment for 28 days
cortical cGMP levels = conditions: subchronic administration, rats
[9] = test system: male schizophrenia patients
healthy young men = conditions: 100 mg
mice [10] = conditions: 3 mg/kg, at 48 hours
[11] = in vivo
healthy subjects = conditions: single 20-mg dose
[12] = test system: men with erectile dysfunction; conditions: phase III, including patients with cardiovascular diseases, vs placebo
[13] = single oral dose of 10, 20 and 40 mg

SMILES: N[C@@H]1CONC1=O [D-cycloserine]
cognitive deficits (schizophrenia patients): failed to improve cognitive deficits
tolerance for memory effects (animal models; after two weeks of daily dosing): tolerance for memory effects develops
learning and memory (animal models; single dose administration): improves learning and memory

SMILES: CCCOc1ccc(S(=O)(=O)NCCC2CCCN2C)cc1-c1nc2c(CCC)nn(C)c2c(=O)[nH]1 (centres unmarked) [DA-8159]
erectogenic activity (rats [1]): erectogenic activity
intracavernosal pressure (anesthetized dogs): potentiated an increase in intracavernosal pressure in a dose-related manner

SMILES: Cc1nc2n(c(=O)c1CCN1CCC(c3noc4cc(F)ccc34)CC1)CCCC2 [risperidone]
reduction in relapse rate [2]: 43%

SMILES: CCCc1nn(C)c2c(=O)[nH]c(-c3cc(S(=O)(=O)N4CCN(C)CC4)ccc3OCC)nc12 [sildenafil]
acquisition of maze learning (mice [3]): dose-dependently improved acquisition
sexual performance [4]: improve sexual performance
retention of object recognition task (rats [5]): significantly improved retention
functional recovery (foot fault test and adhesive removal test) [6]: significantly greater functional recovery
cellular proliferation in the subventricular zone and dentate gyrus ([6]; bromodeoxyuridine labeling): greater cellular proliferation
effect on behavioral effects of dopamine agonists (rats [7]; 10 mg/kg): antagonized behavioral effects
effect on behavioral effects of dopamine agonists (rats [7]; single dose 1 mg/kg): enhanced behavioral effects
men with improved erectile function ([8]; men with ischemic heart disease): up to 70%
synergistic effect on blood pressure with antihypertensive agents ([8]; patients not taking organic nitrates, ACE inhibitors, adrenoceptor blockers, calcium channel blockers, diuretics): does not have a synergistic effect on blood pressure
cGMP levels in brains (hyperammonemic rats): normalized cGMP levels
performance on learning tasks (hyperammonemic rats): restored performance on learning tasks
terminal half-life (in vivo): 3 to 5 h
absolute bioavailability (oral administration): 40%
time to peak plasma concentration (Tmax) (oral, fasting state): 0.5 to 2 h
cortical cGMP levels (cortical cGMP levels): increase cortical cGMP levels
safety and efficacy for erectile dysfunction [9]: safe and effective
actual performance (attention / recognition) (healthy young men): did not significantly improve
event-related brain potentials (ERPs) patterns (healthy young men): significantly affected
retention of passive avoidance task (mice [10]): improved retention

maximum Tmax [11]: 2 h
SMILES: CN1CC(=O)N2[C@H](c3ccc4c(c3)OCO4)c3[nH]c4ccccc4c3C[C@@H]2C1=O [tadalafil]
change in heart rate, standing systolic or diastolic blood pressure (healthy subjects): no significant change
incidence of adverse events [12]: no different from that in placebo-treated patients

Tmax [13]: 0.7 to 0.9 h
SMILES: CCCc1nc(C)c2c(=O)[nH]c(-c3cc(S(=O)(=O)N4CCN(CC)CC4)ccc3OCC)nn12 [vardenafil]
